Measurements as given in patent publication US20210137126A1, “USE OF PEPTIDES AS IN[…]” (INSTITUT NATIONAL DES SCIENCES APPLIQUEES DE LYON, priority 2018, published 2021).

Test system: pea aphid Acyrthosiphon pisum
Test: Insecticide test: ingestion of the peptide in artificial medium by pea aphid larvae, mortality monitored over 7 days
Assay type: in vivo
Settings: for TL50 (lethal time at which mortality of individuals is 50%): survival analysis, normal logarithmic adjustment
Protocol: The experiments were carried out on aphids from the parthenogenetic clone of the pea aphid LL01 which contained only the primary symbiont B. aphidicola. The aphids were bred and kept on feva bean plants (Vicia faba L., Aquadulce variety) under climate-controlled conditions (temperature 21±1° C., relative humidity 70%, photoperiod of 16 h), in order to obtain aphids which reproduced solely by viviparous parthenogenesis. In order to reduce the variability linked to the use of individuals at different stages of development, the aphids were obtained from a synchronized brood. For this, adult aphids that were ready to lay were placed on feva bean plants. […] The manipulation was carried out with a negative control composed solely of artificial medium and a positive control representing one of the concentrations of the range being studied with the aphids. The range being studied comprised different media containing the BCR4 peptide studied at various concentrations which varied from 5 to 80 μM. The experiments were carried out on thirty larvae per condition divided into three distinct groups of ten individuals.
All of the data regarding the mortality of the aphids were analyzed statistically by standard survival processing. All of the BCR4 concentrations were analyzed separately in a parametric survival analysis with a normal logarithmic adjustment.
The measurement of the insecticidal activity of BCR4 was carried out by incorporating increasing doses of peptides into the nutrient medium for the aphids and monitoring of their mortality was carried out over 7 days.

Sequence: DFDPTEFKGPFPTIEICSKYCAVVCNYTSRPCYCVEAAKERDQWFPYCYD (listed as Acyrthosiphon pisum) [BCR4, Bacteriocyte Cysteine Rich peptide of Acyrthosiphon pisum]
- TL50 (lethal time at which mortality of individuals is 50%) (BCR4 concentration 5 μM in artificial medium): >20 days
- TL50 (lethal time at which mortality of individuals is 50%) (BCR4 concentration 10 μM in artificial medium): 11.3 days
- TL50 (lethal time at which mortality of individuals is 50%) (BCR4 concentration 20 μM in artificial medium): 3.48 days
- TL50 (lethal time at which mortality of individuals is 50%) (BCR4 concentration 27.5 μM in artificial medium): 3.24 days
- TL50 (lethal time at which mortality of individuals is 50%) (BCR4 concentration 35 μM in artificial medium): 1.94 days
- TL50 (lethal time at which mortality of individuals is 50%) (BCR4 concentration 40 μM in artificial medium): 1.76 days
- TL50 (lethal time at which mortality of individuals is 50%) (BCR4 concentration 80 μM in artificial medium): 1.16 days
- mortality at onset of the dose-response effect (from the first day following ingestion): high mortality
- dose-response over the survival time for the aphids (increasing doses 5 to 80 μM, mortality monitored over 7 days): very significant dose-response
- range of activity (insecticidal) (pea aphid, peptide in nutrient medium): 5 to 80 µM
